According to US20200231912A1, “USE OF STEVIOL GLYCOSIDE IN MALTING” (Corn Products Development, Inc., priority 2017, published 2020):

test system: two row barley; test: Malting trials: overall malt quality against defined specifications; settings: Example 2; inferred from content in compositions A-E and Table 6
Procedure: Cereal grain malting trials were performed according to the methods described herein to compare Control malts # 1, 2 and 3 with Test malts # 1, 2, 3, 4 and 5, where steviol glycosides were added at the following rates: • Test 1: 0.00019 kg per 1 metric ton of unmalted barley; • Test 2: 0.00013 kg per 1 metric ton of unmalted barley; • Test 3: 0.00024 kg per 1 metric ton of unmalted barley; • Test 4: 0.00070 kg per 1 metric ton of unmalted barley; • Test 5: 0.00043 kg per 1 metric ton of unmalted barley; The steviol glycosides were added at the beginning of the germination process, prior to kilning. Table 5 illustrates the weight percent ranges of each steviol glycoside in a mixture of steviol glycosides.
Control malts # 1, 2 and 3 and Test malts # 1, 2, 3, 4 and 5 were prepared as follows. The general process is illustrated in FIG. 10.
Control Malt # 1 was produced according to the steeping process described in FIG. 10, which was performed in flat bottomed steep vessel, adding 400 kg of 100% two row barley having a 10% moisture content to water. The steeping process included three steeping steps, including a steeping step which was conducted for 1:15 hours and followed by a drying step which was aeration at 19-21° C. during 6 hours. The steeping step was repeated two times. When the steeping degree of the cereal grains measured ≥42%, the water was drained off in preparation for germination. Steviol glycosides and/or gibberellic acid were not added during Control Malt # 1 production.
The germinating step of Control Malt # 1 is described in FIG. 10, which occurred in a typical rectangular germination box (e.g., unit type Saladin) for 5.5 days. The ventilation air temperature during the germinating step was 15-18° C. from the first until the third germination day, followed by ventilation air temperature of 11-15° C. from the third until the last germination day, and the moisture content was 43-47%. The malt turning procedures, which provide the mixing for the germinating kernels, were used first after 24 hours of germination and second after 48 hours of germination. Once the germination time achieved the expected value for Control Malt # 1, the kernels were kilned.
The kilning step is then described in FIG. 10 as using a single floor kiln with gas heating. The kernels were heated for 16:30 hours using hot air from 55-70° C., then for 5 hours using hot air at 80° C. […] The malt was cleaned by removing the rootlets using a malt deculming screw, and the cleaned malt was packaged into 25 kilogram bags.

**Q.** For `C=C1C[C@@]23CC[C@H]4[C@@](C)(CCC[C@@]4(C)C(=O)O[C@@H]4O[C@H](CO)[C@@H](O)[C@H](O)[C@H]4O)[C@@H]2CC[C@]1(O[C@@H]1O[C@H](CO)[C@@H](O)[C@H](O)[C@H]1O[C@@H]1O[C@@H](C)[C@H](O)[C@@H](O)[C@H]1O)C3` [Dulcoside A], which “impact on stimulation of barley germination” value (from here on “impact on stimulation”) is on record?
**A.** negative impact

**Q.** With `C=C1C[C@@]23CC[C@H]4[C@@](C)(CCC[C@@]4(C)C(=O)O)[C@@H]2CC[C@]1(O[C@@H]1O[C@H](CO)[C@@H](O)[C@H](O)[C@H]1O[C@@H]1O[C@H](CO)[C@@H](O)[C@H](O)[C@H]1O)C3` [Steviolbioside] as the compound, how does the “impact on stimulation” value read?
**A.** do not seem to play a significant role

**Q.** With Rebaudioside B as the compound, how does the “impact on stimulation” value read?
**A.** seems to impact barley germination at certain content ranges

**Q.** How did the “impact on stimulation” value turn out when Rebaudioside C was run?
**A.** positive impact

**Q.** Which “impact on stimulation” value does the source give for `C=C1C[C@@]23CC[C@H]4[C@@](C)(CCC[C@@]4(C)C(=O)O[C@@H]4O[C@H](CO)[C@@H](O)[C@H](O)[C@H]4O)[C@@H]2CC[C@]1(O[C@@H]1O[C@H](CO)[C@@H](O)[C@H](O)[C@H]1O)C3` [Rubusoside] here?
**A.** do not seem to play a significant role

**Q.** Rebaudioside F was tested. Which “impact on stimulation” value did it give?
**A.** seems to impact barley germination at certain content ranges

**Q.** `C=C1C[C@@]23CC[C@H]4[C@@](C)(CCC[C@@]4(C)C(=O)O[C@@H]4O[C@H](CO)[C@@H](O)[C@H](O)[C@H]4O)[C@@H]2CC[C@]1(O[C@@H]1O[C@H](CO)[C@@H](O)[C@H](O)[C@H]1O[C@@H]1O[C@H](CO)[C@@H](O)[C@H](O)[C@H]1O)C3` [Stevioside] was tested. Which “impact on stimulation” value did it give?
**A.** do not seem to play a significant role

**Q.** Which “effect on proteolytic enzymes activity and protein breakdown” value does the source give for `C=C1C[C@@]23CC[C@H]4[C@@](C)(CCC[C@@]4(C)C(=O)O[C@@H]4O[C@H](CO)[C@@H](O)[C@H](O)[C@H]4O)[C@@H]2CC[C@]1(O[C@@H]1O[C@H](CO)[C@@H](O)[C@H](O[C@@H]2O[C@H](CO)[C@@H](O)[C@H](O)[C@H]2O)[C@H]1O[C@@H]1O[C@H](CO)[C@@H](O)[C@H](O)[C@H]1O)C3` [Rebaudioside A] here?
**A.** appears to have an effect

**Q.** And the “impact on stimulation” value?
**A.** positive impact

**Q.** For `C=C1C[C@@]23CC[C@H]4[C@@](C)(CCC[C@@]4(C)C(=O)O[C@@H]4O[C@H](CO)[C@@H](O)[C@H](O)[C@H]4O[C@@H]4O[C@H](CO)[C@@H](O)[C@H](O)[C@H]4O)[C@@H]2CC[C@]1(O[C@@H]1O[C@H](CO)[C@@H](O)[C@H](O[C@@H]2O[C@H](CO)[C@@H](O)[C@H](O)[C@H]2O)[C@H]1O[C@@H]1O[C@H](CO)[C@@H](O)[C@H](O)[C@H]1O)C3` [Rebaudioside D], which “impact on stimulation” value is on record?
**A.** do not seem to play a significant role

test system: two row barley; test: Germination rate assay; format: in vivo; settings: Example 2; 4.5 days germination; % printed
Procedure: The Germination rate assay informs the percentage of germinated kernels during malting. One hundred barley grains are placed inside each one of four Petri plates containing 4mL of distilled water in a paper filter. The number of germinated kernels is measured after 24, 48 and 72 hours respectively. The germination rate is defined comparing the number of germinated kernels at 24, 48 and 72 h with total number of kernels (400). Typical result for Germination rate analysis is minimum 95%.

**Q.** Which Germination rate does the source give for `C=C1C[C@]23C[C@@]1(O)CC[C@H]2[C@@]12C=C[C@H](O)[C@@](C)(C(=O)O1)[C@H]2[C@@H]3C(=O)O` [Control 3, Gibberellic acid] here?
**A.** 90%

test system: two row barley; test: Huzzar rate assay; format: in vivo; settings: Example 2; 4.5 days germination; % printed
Source text: The Huzzar rate assay informs the ratio of cereal kernels in which the acrospires have emerged from end of grains. A range of devices have been used as measuring aids having magnifying lenses and ruled scales with diverging lines that are arranged over the grain with the base and tip at the “0” and “1” lines and then divide the grain length into ¼, ½, ⅔, ¾, 1 and 1+ or overgrown. The results may be expressed as an average value. Typical result for Huzzar rate analysis is maximum 3%.

**Q.** `C=C1C[C@]23C[C@@]1(O)CC[C@H]2[C@@]12C=C[C@H](O)[C@@](C)(C(=O)O1)[C@H]2[C@@H]3C(=O)O` [Control 3, Gibberellic acid] was tested. Which Huzzar rate did it give?
**A.** 5%
